In US7595327B2, “Beta-sulfonamide hydroxamic acid inhibitors of tace/matrix metalloproteinase” (priority 2005, dated 2009):
Structures can show the parent of a compound that is named as a salt.

Columns and labels:
[1] = biological target: T1, TACE (catalytic domain of the recombinant TACE protein) (Homo sapiens, UniProt P78536); assay: TACE FRET assay using TACE Cat; format: biochemical; details: FRET, pro-TNF-α substrate peptide; read-out: TACE IC50
T1 construct: The catalytic domain of the recombinant TACE protein was expressed and purified; made in house
T1 sequence (P78536 223-474 limits assumed): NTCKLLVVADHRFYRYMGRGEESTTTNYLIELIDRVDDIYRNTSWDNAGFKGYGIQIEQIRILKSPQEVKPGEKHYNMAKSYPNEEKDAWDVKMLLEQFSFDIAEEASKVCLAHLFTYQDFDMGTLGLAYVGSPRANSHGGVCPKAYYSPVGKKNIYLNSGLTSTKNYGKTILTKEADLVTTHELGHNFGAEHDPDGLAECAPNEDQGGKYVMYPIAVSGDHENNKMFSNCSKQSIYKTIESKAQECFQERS
Procedure: The procedure is essentially as described in Jin, G. et al., Analytical Biochemistry (2002) 302, 269-275, incorporated by reference herein in its entirety. […] K is the IC50. Generally, n and B are floated, noting that n (hill slope) should be close to 1 and B (background offset) to 0.
Pro-TNF-α substrate peptide Abz-[…]-Dpa (AnaSpec, San Jose, Calif., WARC-1) was prepared as a 2 mM stock solution in the TACE assay buffer (50 mM Tris-HCI, pH 7.4, 25 mM NaCl, 4% Glycerol, 0.005% Brij 35). The catalytic domain of the recombinant TACE protein was expressed and purified. The TACE protein (1 ug/ml) was pretreated with the inhibitors at various concentrations for 10 min at room temperature. The reaction was initiated by the addition of the substrate peptide. The increase in fluorescence was monitored at an Excitation of 320 nm and an Emission of 420 nm over a period of 10 min. The initial rate (slope) of the reaction was determined using a fluorescence plate reader (Molecular Devices, Spectra Max Gemini XS).

[2] = biological target: T2, recombinant human MMP-2 (Homo sapiens, UniProt P08253); assay: In-vitro fluorescence assay of MMP-2 activity; format: biochemical
T2 sequence (P08253 110-660): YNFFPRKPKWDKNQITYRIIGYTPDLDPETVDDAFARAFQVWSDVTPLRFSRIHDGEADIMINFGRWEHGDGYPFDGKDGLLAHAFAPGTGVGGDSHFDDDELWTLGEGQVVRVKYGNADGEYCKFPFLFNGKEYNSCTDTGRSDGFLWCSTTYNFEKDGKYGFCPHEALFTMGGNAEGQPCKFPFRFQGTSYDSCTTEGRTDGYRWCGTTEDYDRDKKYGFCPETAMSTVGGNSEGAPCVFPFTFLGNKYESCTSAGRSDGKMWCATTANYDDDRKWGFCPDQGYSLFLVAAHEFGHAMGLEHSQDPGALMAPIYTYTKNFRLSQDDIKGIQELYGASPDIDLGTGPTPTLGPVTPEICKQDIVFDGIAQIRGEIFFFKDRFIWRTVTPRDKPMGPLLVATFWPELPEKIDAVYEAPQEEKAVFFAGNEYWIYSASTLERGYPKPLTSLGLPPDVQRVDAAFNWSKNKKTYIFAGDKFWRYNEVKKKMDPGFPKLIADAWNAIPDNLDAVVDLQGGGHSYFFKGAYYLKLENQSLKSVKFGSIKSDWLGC

[3] = biological target: MMP-13 (Homo sapiens, UniProt P45452); assay: In-vitro fluorescence assay of MMP-13 activity; format: biochemical
Procedure: See Knight, C. […] […].
The method was essentially the same as for the determination of MMP-1 activity, described above, except that the final concentration of purified MMP in the assay was 0.5 nM, prepared by diluting with the assay buffer.

[4] = test system: TNF-α secretion in Raw 264.7 cells; assay: Cell-based assay for inhibition of TNF-α secretion in Raw cells; details: Mus musculus, RAW264.7, LPS 100 ng/ml, 4 hr
Procedure: The basic measurement of the assay is the percentage of inhibition of TNF-α secretion and the IC50 determination by a fitting with the model-39 of LSW data analysis tool. […] Cells are split twice a week by scraping and 1 to 10 or 20 dilutions. For testing compounds, cells are cultured to confluence and are seeded the day before the experiment in 24 well culture dishes at 0.5 to 1 million/ml well. On the next morning, the medium from the overnight culture is replaced with the fresh growth medium. The compounds are added at various concentration at the 0.2% of final DMSO concentrations (10 μl of a 20% DMSO solution containing testing compounds is added to each well). The cells are pre-incubated with compounds for 1 hr. LPS (Sigma, L2262) is added to cells at a final concentration of 100 ng/ml (10 μl of a […] LPS solution freshly diluted from a 1 mg/ml LPS stock solution in PBS is added to each well) and cells are further incubated for 4 hr at 37° C. 1 ml of the supernatant was collected, cells are spun down and the supernatants are frozen at −80° C. until use. The TNF-α and other proinflammatory cytokines were detected by an ELISA assay according to the manufacturer's instructions (Biosource International, Inc., Camarillo, Calif. (For IL-1b measurement in Raw cells, one round of freeze and thaw of the cells was required).

[5] = test system: LPS-induced TNF-α secretion in human whole blood; assay: Human whole blood assay for LPS-induced TNF-α secretion; format: cell-based; details: Homo sapiens, LPS 100 ng/ml, read-out: TNF Secretion HWB IC50
Procedure: procedure is essentially as described in Newton, R. C., et al., (2001) Ann Rheum […]32, incorporated by reference herein in its entirety. The basic measurement of the assay is the percentage of inhibition of TNF-α secretion and the IC50 determination by a […] model-39 of LSW data analysis tool. 350 μl of fresh human blood drawn from healthy volunteers were pre-incubated with compounds for one hour at the various concentrations at 37° C. with turning generally, the final DMSO concentrations should be kept below 0.2%. At the end of cubation, LPS (Sigma, L2262) was added to the blood at 100 ng/ml and the samples were further incubated for 4 hours or overnight at 37° C. with constant rotation. At the end of the incubation period, 650 μl of serum-free medium was added to the blood samples and the samples were centrifuged at 1500 rpm for 15 minutes. 500 μl of supernate was collected and frozen at -80° C. The TNF-α and other proinflammatory cytokines were detected by ELISA assay according to the manufacturer's instruction (Biosource International, Inc., Camarillo, Calif.).

Row | IC50 [1] | IC50 [2] | IC50 [3] | IC50 [4] | IC50 [5] | Compound
1 | 0.7 nM | > 16700 nM | > 16700 nM | 58 nM | 4700 nM | Cc1cc(COc2ccc(S(=O)(=O)N[C@@H]3CN(C(=O)OC(C)(C)C)CCC3C(=O)NO)cc2)c2ccccc2n1 (stereo in doubt) [Example 33, (3S,4R)-4-Hydroxycarbamoyl-3-[4-(2-methyl-quinolin-4-ylmethoxy)-benzenesulfonylamino]-piperidine-1-carboxylic acid tert-butyl ester]
2 | 0.8 nM | > 16700 nM | 13200 nM | 7 nM | 86 nM | Cc1cc(COc2ccc(S(=O)(=O)N[C@@H]3CCN(C=O)C[C@@H]3C(=O)NO)cc2)c2ccccc2n1 [Example 29, (3S,4R)-1-Formyl-4-[4-(2-methyl-quinolin-4-ylmethoxy)-benzenesulfonylamino]-piperidine-3-carboxylic acid hydroxyamide]
3 | < 0.6 nM | > 10000 nM | 9090 nM | 30 nM | 250 nM | Cc1cc(COc2ccc(S(=O)(=O)N[C@H]3CCN(C(=O)NC(C)(C)C)C[C@H]3C(=O)NO)cc2)c2ccccc2n1 [Example 30, (3S,4R)-4-[4-(2-Methyl-quinolin-4-ylmethoxy)-benzenesulfonylamino]-piperidine-1,3-dicarboxylic acid 1-tert-butylamide 3-hydroxyamide]
4 | 0.5 nM | > 16700 nM | > 16700 nM | 1670 nM | 46000 nM | Cc1cc(COc2ccc(S(=O)(=O)N[C@@H]3CCOC[C@]3(C)C(=O)NO)cc2)c2ccccc2n1 [Example 44, (3R,4R)-N-hydroxy-3-methyl-4-[({4-[(2-methylquinolin-4-yl)methoxy]phenyl}sulfonyl)amino]tetrahydro-2H-pyran-3-carboxamide]
5 | 6.2 nM | > 16700 nM | > 16700 nM | 1920 nM | > 50000 nM | Cc1cc(COc2ccc(S(=O)(=O)N[C@@H]3CCOC[C@@]3(C)C(=O)NO)cc2)c2ccccc2n1 [Example 45, (3S,4R)-N-hydroxy-3-methyl-4-[({4-[(2-methylquinolin-4-yl)methoxy]phenyl}sulfonyl)amino]tetrahydro-2H-pyran-3-carboxamide]
6 | 1.4 nM | > 16700 nM | > 16700 nM | 160 nM | 2900 nM | Cc1cc(COc2ccc(S(=O)(=O)N[C@@H]3CCN(C=O)C[C@]3(O)C(=O)NO)cc2)c2ccccc2n1 [Example 46, 4-({4-[({(3R,4R)-1-Formyl-3-hydroxy-3-[(hydroxyamino)carbonyl]piperidin-4-yl}amino)sulfonyl]phenoxy}methyl)-2-methylquinolinium trifluoroacetic acid salt]
7 | 6.4 nM | > 16700 nM | > 16700 nM | > 1000 nM | > 50000 nM | CC(=O)N1CC[C@@H](NS(=O)(=O)c2ccc(OCc3cc(C)nc4ccccc34)cc2)[C@@](C)(C(=O)NO)C1 [Example 47, (3S,4R)-1-acetyl-N-hydroxy-3-methyl-4-[({4-[(2-methylquinolin-4-yl)methoxy]phenyl}sulfonyl)amino]piperidine-3-carboxamide]
8 | 211 nM | > 16700 nM | > 16700 nM | > 1000 nM | > 50000 nM | Cc1cc(COc2ccc(S(=O)(=O)N[C@@H]3CCN(C(C)C)C[C@]3(C)C(=O)NO)cc2)c2ccccc2n1 [Example 48, (3S,4R)-N-hydroxy-1-isopropyl-3-methyl-4-[({4-[(2-methylquinolin-4-yl)methoxy]phenyl}sulfonyl)amino]piperidine-3-carboxamide]
9 | 19 nM | > 16700 nM | > 16700 nM | > 1000 nM | > 50000 nM | C#CCN1CC[C@@H](NS(=O)(=O)c2ccc(OCc3cc(C)nc4ccccc34)cc2)[C@@](C)(C(=O)NO)C1 [Example 49, (3S,4R)-N-hydroxy-3-methyl-4-[({4-[(2-methylquinolin-4-yl)methoxy]phenyl}sulfonyl)amino]-1-prop-2-yn-1-ylpiperidine-3-carboxamide]
10 | 3.7 nM | > 16700 nM | > 16700 nM | > 1000 nM | 22000 nM | CNC(=O)N1CC[C@@H](NS(=O)(=O)c2ccc(OCc3cc(C)nc4ccccc34)cc2)[C@@](C)(C(=O)NO)C1 [Example 50]
11 | < 0.6 nM | > 16700 nM | > 10000 nM | > 1000 nM | 30000 nM | Cc1cc(COc2ccc(S(=O)(=O)N[C@@H]3CCN(C=O)C[C@]3(C)C(=O)NO)cc2)c2ccccc2n1 [Example 51, (3S,4R)-1-formyl-N-hydroxy-3-methyl-4-[({4-[(2-methylquinolin-4-yl)methoxy]phenyl}sulfonyl)amino]piperidine-3-carboxamide]
12 | 2.4 nM | > 16700 nM | > 10000 nM | 762 nM | 37000 nM | Cc1cc(COc2ccc(S(=O)(=O)N[C@@H]3CCN(S(=O)(=O)C(C)C)C[C@]3(C)C(=O)NO)cc2)c2ccccc2n1 [Example 52, (3S,4R)-N-hydroxy-1-(isopropylsulfonyl)-3-methyl-4-[({4-[(2-methylquinolin-4-yl)methoxy]phenyl}sulfonyl)amino]piperidine-3-carboxamide]
13 | 0.4 nM | > 16700 nM | > 16700 nM | 82 nM | 3600 nM | Cc1cc(COc2ccc(S(=O)(=O)N[C@@H]3CCC[C@]3(O)C(=O)NO)cc2)c2ccccc2n1 [Example 53, (1R,2R)-N,1-dihydroxy-2-[({4-[(2-methylquinolin-4-yl)methoxy]phenyl}sulfonyl)amino]cyclopentanecarboxamide]
14 | < 0.6 nM | > 16700 nM | > 10000 nM | 19 nM | 2300 nM | Cc1cc(COc2ccc(S(=O)(=O)N[C@@H]3CCC[C@]3(F)C(=O)NO)cc2)c2ccccc2n1 [Example 54, (1R,2R)-1-fluoro-N-hydroxy-2-[((4-[(2-methylquinolin-4-yl)methoxy]phenyl}sulfonyl)amino]cyclopentanecarboxamide]
